Positions of bridges follow the written chain, without caps; N, C: chain ends. Non-standard residues stand in square brackets, D forms with d. Residues, ends and D or L forms follow the SMILES beside them. *: point of attachment. Ileψ(thiazoline)Cys = CC[C@H](C)[C@H](N)C1=N[C@H](C(=O)*)CS1; dOrn = NCCC[C@@H](N)C(=O)O
Columns and labels:
[1] = Growth promotion in chicks, Example XI (Table V); type: in vivo, broiler cross chicks; details: for feed efficiency (in words) / growth rate (in words): 25 g/T; for Average 4 Week Performance: Feed Efficiency / Average 4 Week Performance: Gain / Improved Response Over Basal Ration: Feed Efficiency / Improved Response Over Basal Ration: Gain: 25 g/T in basal ration, 4 weeks
Excerpt: (§1) This example compares growth promotion activity of the product of Example I with other growth promotants at a concentration of 25 g/T in the Basal Ration described in Example VII. The other growth promotants include the product described in Example I of U.S. Pat. No. 3,542,784 -- Burch and quinoxaline-1,4-dioxide. Day old broiler cross chicks were weight equalized into groups of eight chicks each, and four replicates of eight chicks each were fed the experimental rations over a 4 week period.
The growth promotion tests described in Example X were repeated with the exception that five replicates of eight chicks each were fed the formulations described in Table V for 4 weeks.

[2] = Growth promotion in chicks at 25 g/T, Example X (Table IV); type: in vivo, broiler cross chicks
Excerpt: as §1

[3] = Growth promotion in chicks at low feed levels, Example VIII (Table II); type: in vivo, broiler cross chicks; details: 4 g/T in basal ration; 4 weeks
Excerpt: Day old broiler cross chicks were weight equalized into groups of eight chicks each and were placed in battery brooders. The 32 chick treatment groups (four replicates) were fed one of the five rations described below for a 4 week period. Weekly measurements of body weights and feed consumption were made by replicate, and these measurements used to calculate weight gain and feed efficiency.
The basal ration was the basal ration used in Example VII above. The remaining five rations were obtained by mixing the indicated quantities of bacitracin (4 g/T), chlortetracycline (10 g/T), product of Example I (10 g/T), and product of Example III of U.S. Pat. No. 3,542,784 -- Burch (10 g/T) as growth promotants with the basal ration.

[4] = Growth promotion and feed efficiency in chicks, Example VII (Table I); type: in vivo, broiler cross chicks; details: bacitracin 4 g/T alone in basal ration (negative control); 4 weeks
Excerpt: One hundred 20 day-old broiler cross chicks were weight equalized into 15 groups of eight chicks each and placed in battery brooders. The 40 chick treatment groups (five replicates) were fed the one of the three rations described below for a 4 week period. Weekly measurements of body weights and feed consumption were made by replicate, and these measurements used to calculate weight gain and feed efficiency.
The commercial type broiler starter basal ration which was used in this study was designated as the Basal Ration, and had the following composition:
The preceding basal ration was mixed with bacitracin at a level of 4 g/T as the only growth stimulant to simulate commercial practice. This mixture was designated as the Basal Ration + Bacitracin (4 g/T) and constituted the negative control in this study.
A second ration was prepared by fortifying the Basal Ration + bacitracin described above with the Product from Example I above at a level of 200 g/T, and was designated as Basal Ration + Bacitracin + Product of Example I (200 g/T). A third ration was prepared by fortifying the Basal Ration + bacitracin described above with chlortetracycline (CTC) at a level of 200 g/T, and was designated as Basal Ration + Bacitracin + Chlortetracycline (200 g/T). Chlortetracycline served as the positive control in this test because it had shown strong growth promotion in numerous previous tests at this therapeutic level.
The commercial value of the product of Example I is indicated by the fact that these significant responses were obtained in addition to the growth stimulation provided by the presence of bacitracin in the ration. It is important to note that the negative controls in this example and in Examples VIII and X which follow were characterized by rapid rates of growth. This high plane of growth and feed efficiency performance on the part of the negative controls makes the responses to the test compounds all the more meaningful.
The term "growth promotion" is used herein to describe the beneficial effect of a compound in eliciting a more rapid rate of weight gain when compared to the weight gain of control animals not fed the compound. "Feed efficiency" is a term regularly used in animal husbandry and is a measure of the pounds of feed required to produce a pound of gain in the weight of the animal. A lower mathmatical value for feed efficiency reflects improved performance. […] In this case, as in the case of the weight gain (fifth column), an improved performance is indicated by a higher positive number.

Streptococcus agalactiae = test: Bactericide test, Streptococcus agalactiae (agar streak plate); type: cell-based; details: 100% inhibition at lower concentrations
Excerpt: (§2) Test formulations were examined for bactericidal and/or bacteriostatic activity against the test organisms shown in Tables A and B. These organisms were chosen as being representative of commercially important pathogens affecting animal agriculture. The antibiotic chlortetracycline was chosen as a positive control, since it has a broad spectrum of activity against a large number of organisms, and its activity can be used for comparative purposes.
(§3) Basic test formulations of the product of Examples I, II, III, and of chlortetracycline were prepared by dissolving 16 mg (0.016 g) in 2.0 ml of stock emulsifier solution (0.25% Triton X-155 in acetone by volume) and making each solution up to 50 ml with deionized water. The concentration of the test compound in the basic formulation was 320 ppm. Lower concentrations of the test compound were obtained by diluting the basic formulation with a 4% solution of the stock emulsifier in deionized water so that each dilution in the series differed only in test compound content.
(§4) Nutrient-tryptic soy agar (NTA) consisting of 2.0% Difco Bactoagar 0.8% nutrient broth (Difco), and 0.5% tryptic soy broth (Difco) was prepared and sterilized by autoclaving. A 2 ml aliquot of each test formulation was added to 8 ml of molten NTA. This mixture was then plated in a sterile polystyrene petri dish (100 × 15 mm). After the agar was set, suspensions of each of the test organisms were simultaneously streaked onto the surface of the agar. The inoculated plates were incubated for 48 hr at 28°C. The inhibition of growth of each organism was rated by visual comparison with the organism developing on non-treated agar. Growth inhibition reported as per cent control was rated in three categories as follows: 0% control, growth equivalent to that on non-treated agar; 50% control, sparse development and separated colonies; 100% control, no visible growth or development of colonies.

[5] = test system: Bordetella bronchiseptica; test: Bactericide test, Bordetella bronchiseptica (agar streak plate); type: cell-based; details: 100% inhibition at lower concentrations
Excerpt: as §2, §3, §4

Streptococcus group E = test: Bactericide test, Streptococcus group E (agar streak plate); type: cell-based; details: 100% inhibition at lower concentrations
Excerpt: as §2, §3, §4

[6] = test system: Erysipelothrix rhusiopathiae; test: Bactericide test, Erysipelothrix rhusiopathiae (agar streak plate); type: cell-based; details: 100% inhibition at lower concentrations
Excerpt: as §2, §3, §4

Vibrio coli = test: Bactericide test, Vibrio coli (agar streak plate); type: cell-based; details: 100% inhibition at lower concentrations
Excerpt: as §2, §3, §4

Salmonella gallinarum = test: Bactericide test, Salmonella gallinarum (agar streak plate); type: cell-based; details: Salmonella enterica, GALLINARUM, read-out: % Control In Vitro Growth
Excerpt: as §2, §3, §4
(§5) Test formulations of the product of Example IV were examined for bactericidal and/or bacteriostatic activity against the test organisms shown in Table B using the Bactericide Test described in Example V. The inhibition of organism growth with each diluted test formulation was rated visually by comparison with the organism developing on a non-treated control agar plate. Growth inhibition reported as per cent control was rated in three categories as follows: 0% control, growth equivalent to that on non-treated agar; 50% control is sparse development and separated colonies; and 100% control, development of individual colonies was not apparent.

Salmonella cholerasuis = test: Bactericide test, Salmonella cholerasuis (agar streak plate); type: cell-based; details: Salmonella, read-out: % Control In Vitro Growth
Excerpt: as §2, §3, §4, §5

Streptococcus faecalis = test: Bactericide test, Streptococcus faecalis (agar streak plate); type: cell-based; details: 100% inhibition at lower concentrations
Excerpt: as §2, §3, §4, §5

[7] = 25 g/T in basal ration, 4 weeks

[O-][n+]1cc[n+]([O-])c2ccccc21 [Quinoxaline-1,4-dioxide, quinoxaline-1,4-dioxide]
feed efficiency (in words) [1]: improvement in feed efficiency | growth rate (in words) [1]: questionable effect on growth | Average 4 Week Performance: Feed Efficiency [1]: 1.709 | Average 4 Week Performance: Gain [1]: 740.8 g | Improved Response Over Basal Ration: Feed Efficiency [1]: +5.2% | Improved Response Over Basal Ration: Gain [1]: +1.1% | effect on feed efficiency (in words) ([2]; 25 g/T): did not have any apparent effect | growth response (in words) ([2]; 25 g/T): did not have any apparent effect | Average 4 Week Performance: Feed Efficiency [2, 7]: 1.550 | Average 4 Week Performance: Gain [2, 7]: 756.6 g | Improved Response Over Basal Ration: Feed Efficiency [2, 7]: +0.1% | Improved Response Over Basal Ration: Gain [2, 7]: -1.1%

CC[C@H](C)[C@H](N)C1=N[C@H](C(=O)N[C@@H](CC(C)C)C(=O)N[C@H](CCC(=O)O)C(=O)N[C@H](C(=O)N[C@H]2CCCCNC(=O)[C@H](CC(N)=O)NC(=O)[C@@H](CC(=O)O)NC(=O)[C@H](Cc3cnc[nH]3)NC(=O)[C@@H](Cc3ccccc3)NC(=O)[C@H]([C@@H](C)CC)NC(=O)[C@@H](CCCN)NC2=O)[C@@H](C)CC)CS1 [Bacitracin] ({Ileψ(thiazoline)Cys}-L[dE]IK[dOrn]I[dF]H[dD]N; lactam 4-C)
feed efficiency (in words) [1]: moderate improvements in feed efficiencies | growth rate (in words) [1]: slight improvements in growth rates | Average 4 Week Performance: Feed Efficiency [1]: 1.746 | Average 4 Week Performance: Gain [1]: 741.3 g | Improved Response Over Basal Ration: Feed Efficiency [1]: +3.1% | Improved Response Over Basal Ration: Gain [1]: +1.2% | Average 4 Week Performance: Feed Efficiency [3]: 1.739 | Average 4 Week Performance: Gain [3]: 703.6 g | Improved Response Over Basal Ration: Feed Efficiency [3]: +1.2% | Improved Response Over Basal Ration: Gain [3]: -2.3% | Average 4 Week Performance: Feed Efficiency [4]: 1.721 | Average 4 Week Performance: Gain [4]: 694.5 gms

O=[N+]([O-])c1ccc(C=Cc2nc(Nc3ccccc3)c3ccccc3n2)o1 [Example IV, 2-[2-(5-nitro-2-furyl)vinyl]-4-anilinoquinazoline]
effectiveness compared with chlortetracycline (in words) (Streptococcus agalactiae): considerably more effective | effectiveness compared with chlortetracycline (in words) [5]: considerably more effective | effectiveness compared with chlortetracycline (in words) (Streptococcus group E): considerably more effective | effectiveness compared with chlortetracycline (in words) [6]: considerably more effective | effectiveness compared with chlortetracycline (in words) (Vibrio coli): considerably more effective | inhibition of growth at 0.007 ppm (Salmonella gallinarum; 0.007 ppm): 0% | inhibition of growth at 0.01 ppm (Salmonella gallinarum; 0.01 ppm): 0% | inhibition of growth at 0.03 ppm (Salmonella gallinarum; 0.03 ppm): 0% | inhibition of growth at 0.06 ppm (Salmonella gallinarum; 0.06 ppm): 0% | inhibition of growth at 0.125 ppm (Salmonella gallinarum; 0.125 ppm): 0% | inhibition of growth at 0.25 ppm (Salmonella gallinarum; 0.25 ppm): 100% | inhibition of growth at 0.5 ppm (Salmonella gallinarum; 0.5 ppm): 100% | inhibition of growth at 1 ppm (Salmonella gallinarum; 1 ppm): 100% | inhibition of growth at 2 ppm (Salmonella gallinarum; 2 ppm): 100% | inhibition of growth at 4 ppm (Salmonella gallinarum; 4 ppm): 100% | inhibition of growth at 0.007 ppm (Salmonella cholerasuis; 0.007 ppm): 0% | inhibition of growth at 0.01 ppm (Salmonella cholerasuis; 0.01 ppm): 0% | inhibition of growth at 0.03 ppm (Salmonella cholerasuis; 0.03 ppm): 0% | inhibition of growth at 0.06 ppm (Salmonella cholerasuis; 0.06 ppm): 0% | inhibition of growth at 0.125 ppm (Salmonella cholerasuis; 0.125 ppm): 0% | inhibition of growth at 0.25 ppm (Salmonella cholerasuis; 0.25 ppm): 0% | inhibition of growth at 0.5 ppm (Salmonella cholerasuis; 0.5 ppm): 0% | inhibition of growth at 1 ppm (Salmonella cholerasuis; 1 ppm): 50% | inhibition of growth at 2 ppm (Salmonella cholerasuis; 2 ppm): 50% | inhibition of growth at 4 ppm (Salmonella cholerasuis; 4 ppm): 50% | effectiveness compared with chlortetracycline (in words) (Streptococcus faecalis): considerably more effective

Source: patent US3970648A, “2-[2-(5-Nitro-2-furyl)vinyl]-4-(anilino)quinazolines” (Diamond Shamrock Corporation, priority 1974, dated 1976)
